Assay results as given in publication PMC12523303, “Multi-Fused S,N-Heterocyclic Compounds for Targeting α-Synuclein Aggregates” (Cells, 2025).
“And” between values parts separate entries of the source, which are not always exact repeats. Equal entries are not always repeated. Where two headings read alike, the source gives them in different places.

Key:
MDR1 = target: T1, MDR1 (Homo sapiens, UniProt P08183); experiment: Bidirectional transport in MDR1-transfected MDCK cell monolayers; format: in vitro ADME; settings: dog; for recovery at 2 μM: MDCK-MDR1, MDR1-MDCK permeability assay; for Papp A→B at 2 μM: apical-to-basolateral, read-out: A→B apparent permeability
T1 construct: host or cells: MDCK cells
Experimental: (§1) MDR1-transfected MDCK cell monolayers, cultured for 5 days and obtained from the Netherlands Cancer Institute, were used for the in vitro bidirectional transport studies. Cells were maintained in Dulbecco’s Modified Eagle Medium (DMEM) supplemented with 10% fetal bovine serum (FBS) and 1% penicillin–streptomycin. They were subcultured every other day at a split ratio of 1:3 to 1:5. For transport experiments, cells were seeded onto polycarbonate Transwell® filter inserts (Millipore) in 24-well plates at a density of 500,000 cells per well. After 24 h, the medium was replaced, and the cells were cultured for an additional 4 days to allow tight junction formation before initiating the transport assays. Transport studies were performed in duplicate using a 2 μM concentration of test compound, in both apical-to-basolateral (A→B) and basolateral-to-apical (B→A) directions. The apparent permeability coefficient (P_app) was calculated using the following equation: Papp (cm/s) = (Vr/C0) (1/S) (dC/dt)
(§2) • P_app is the apparent permeability, • V_r is the volume of the receiver chamber, • C0 is the initial concentration in the donor chamber, • S is the surface area of the cell monolayer (0.7 cm^2; for a 24-well insert), • dC/dt is the rate of appearance of the compound in the receiver chamber.
(§3) The efflux ratio was calculated as: (1) Efflux ratio=Papp B−A/Papp A−B
(§4) Bioanalysis was carried out using LC-MS/MS.

[1] = target: T2, MDR1-transfected MDCK cells (Homo sapiens, UniProt P08183); experiment: as above; format: in vitro ADME; settings: MDR1-MDCK
T2 construct: host or cells: MDCK cells
Experimental: as §1, §2, §3, §4

[2] = target: T3, α-synuclein (α-syn) aggregates in PD brain homogenates (Homo sapiens, UniProt P37840); experiment: Two point screening assay (30 nM and 300 nM) vs [3H]asyn-44 in human PD brain homogenates; format: binding; settings: for remaining activity at 0.03 µM / % [3H]asyn-44 remaining at 30 nM: 30 nM competitor; for remaining activity at 0.3 µM / % [3H]asyn-44 remaining at 300 nM: 300 nM competitor
T3 construct: Anterior cingulate cortex tissue from a Parkinson’s disease (PD) case; tissue Banner Sun Health Research Institute (Dr. Thomas Beach); host or cells: post-mortem human PD anterior cingulate cortex homogenate
Experimental: Screening assays for the test compounds were performed at two concentrations—30 nM and 300 nM—using unlabelled competitors in human PD brain homogenates against [^3H]asyn-44 as previously described. […] Each assay was conducted in triplicate for both concentrations to ensure reproducibility and statistical reliability.

[3] = Metabolic stability in human liver microsomes; format: in vitro ADME; settings: for % disappearance at 5 minutes relative to time zero / % disappearance at 15 minutes relative to time zero / % disappearance at 30 minutes relative to time zero / Clearance Category / remaining at 5 min, 1 μM / remaining at 0.5 h, 1 μM: human liver microsomes; for Clearance Category: as per Cyprotex Website; for half-life at 1 μM: human, pH 7.4, human liver microsomes (h-MR); for half-life at 1 μM / remaining at 5 min, 1 μM / remaining at 0.5 h, 1 μM: pooled human liver microsomes; for remaining at 5 min, 1 μM / remaining at 0.5 h, 1 μM: pH 7.4; for % disappearance at 30 minutes relative to time zero / remaining at 0.5 h, 1 μM: 30 min
Experimental: Metabolic stability assays were conducted using pooled human liver microsomes (HLMs) to evaluate the rate of in vitro metabolic degradation of the test compound. Incubations were carried out in duplicate (n = 2) at a final compound concentration of 1 μM. The protein concentration of the microsomal suspension was adjusted to 0.5 mg/mL using phosphate buffer (100 mM, pH 7.4). Reactions were initiated by the addition of NADPH (final concentration 1 mM) and incubated at 37 °C. Aliquots were taken at four time points: 0, 5, 15, and 30 min. Each reaction was quenched with ice-cold acetonitrile containing internal standard, followed by centrifugation to pellet proteins. Supernatants were analyzed using a validated LC-MS/MS method to determine the concentration of the parent compound at each time point. […] Metabolic stability was assessed by calculating the percentage of the parent compound remaining at each time point. The elimination rate constant (k), half-life (t1/2), and intrinsic clearance (CLint) were derived from the natural log-transformed concentration vs. time data, assuming first-order kinetics.

[4] = target: T3, α-synuclein (α-syn) aggregates in PD brain homogenates; experiment: In vitro competition (Ki) assay vs [3H]asyn-44 in PD brain homogenates; format: binding; settings: 1 nM [3H]asyn-44
Experimental: Anterior cingulate cortex tissue from a Parkinson’s disease (PD) case was generously provided by Dr. Thomas Beach at the Banner Sun Health Research Institute in Arizona, USA. […] Preparation of the frozen blocks for binding assays followed previously established protocols.
The equilibrium inhibition constants (Ki) for the unlabelled compounds were measured against [^3H]asyn-44 using our previously reported procedure. For these assays, frozen aliquots of homogenized human brain tissue (stored at −80 °C) were used. Homogenates were prepared at 10 mg/mL in phosphate-buffered saline, then diluted with 50 mM Tris buffer (pH 7.0) to a working concentration of 1 mg/mL.
Unlabeled competitor compounds were initially dissolved in DMSO at 400 μM, then diluted with Tris buffer to 20 μM, resulting in a 5% DMSO concentration. A serial dilution series (ranging from 6 μM to 4 nM) was prepared in the same 5% DMSO/Tris buffer solution to maintain consistent solvent conditions throughout the assay.
To perform the binding assay, 50 μL of the appropriately diluted competitor solution was mixed with 50 μL of [^3H]asyn-44 (1 nM final concentration) and 800 μL of Tris buffer containing 20% ethanol and 0.1% bovine serum albumin (BSA). Then, 100 μL of the 1 mg/mL brain homogenate was added, bringing the final tissue concentration to 100 μg/mL. The reaction mixtures were incubated at room temperature for 60 min before filtration through Whatman GF/B glass fibre filters using a Brandel M-24R cell harvester (Gaithersburg, MD, USA). Filters were washed three times with 3 mL of Tris buffer containing 20% ethanol and 0.1% BSA.
After washing, retained radioactivity was measured using CytoScint-ES scintillation fluid following thorough vortexing. Specific binding was calculated by correcting for nonspecific binding (as described later), and the amount of bound radioligand was derived from the filter-associated radioactivity and the molar activity of the tritiated compound.

[5] = A→B, read-out: Calculated recovery, A→B direction
[6] = B→A, read-out: Calculated recovery, B→A direction

T2 sequence (P08183 whole entry): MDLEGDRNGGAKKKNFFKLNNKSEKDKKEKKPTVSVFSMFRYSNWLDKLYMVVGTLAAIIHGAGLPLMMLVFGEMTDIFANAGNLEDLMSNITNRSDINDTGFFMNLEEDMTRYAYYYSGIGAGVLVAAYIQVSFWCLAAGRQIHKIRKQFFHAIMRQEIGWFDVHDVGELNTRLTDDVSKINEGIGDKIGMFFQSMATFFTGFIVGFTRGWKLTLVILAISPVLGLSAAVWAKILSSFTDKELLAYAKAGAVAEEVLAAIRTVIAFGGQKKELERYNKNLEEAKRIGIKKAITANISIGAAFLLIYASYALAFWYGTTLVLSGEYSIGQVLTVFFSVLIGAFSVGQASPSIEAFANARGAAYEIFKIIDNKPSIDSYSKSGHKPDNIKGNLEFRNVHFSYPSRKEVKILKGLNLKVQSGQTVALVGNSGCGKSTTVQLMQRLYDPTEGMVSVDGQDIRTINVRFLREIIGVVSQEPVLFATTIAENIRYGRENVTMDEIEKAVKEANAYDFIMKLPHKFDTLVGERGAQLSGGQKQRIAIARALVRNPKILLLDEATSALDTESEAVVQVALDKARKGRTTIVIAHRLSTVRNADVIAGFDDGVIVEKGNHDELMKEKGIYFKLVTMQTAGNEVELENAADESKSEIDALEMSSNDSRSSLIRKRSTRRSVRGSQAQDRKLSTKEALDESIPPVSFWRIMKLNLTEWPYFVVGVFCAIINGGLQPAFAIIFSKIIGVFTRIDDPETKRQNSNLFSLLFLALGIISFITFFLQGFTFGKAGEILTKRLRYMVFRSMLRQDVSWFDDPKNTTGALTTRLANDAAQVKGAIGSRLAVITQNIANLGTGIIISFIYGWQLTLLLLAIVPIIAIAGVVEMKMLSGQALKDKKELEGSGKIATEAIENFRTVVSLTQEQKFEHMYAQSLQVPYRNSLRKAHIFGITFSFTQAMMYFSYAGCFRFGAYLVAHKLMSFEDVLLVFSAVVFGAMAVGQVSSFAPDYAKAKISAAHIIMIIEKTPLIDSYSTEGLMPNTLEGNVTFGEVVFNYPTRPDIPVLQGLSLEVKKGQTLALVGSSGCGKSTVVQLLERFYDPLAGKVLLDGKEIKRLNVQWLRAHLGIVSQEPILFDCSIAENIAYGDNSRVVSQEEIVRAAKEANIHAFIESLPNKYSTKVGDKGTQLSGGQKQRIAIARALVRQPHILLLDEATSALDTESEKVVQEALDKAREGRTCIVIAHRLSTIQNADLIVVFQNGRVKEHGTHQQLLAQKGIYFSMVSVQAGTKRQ
T1 sequence (P08183 whole entry): as above

| remaining activity at 0.03 µM [2] | remaining activity at 0.3 µM [2] | % disappearance at 5 minutes relative to time zero [3] | % disappearance at 15 minutes relative to time zero [3] | remaining at 5 min, 1 μM [3] | Ki [4] | % [3H]asyn-44 remaining at 30 nM [2] | % [3H]asyn-44 remaining at 300 nM [2] | further results | SMILES |
| --- | --- | --- | --- | --- | --- | --- | --- | --- | --- |
| – | – | – | – | – | – | – | – | recovery at 2 μM (MDR1; [5]): 79.7%; recovery at 2 μM (MDR1; [6]): 108%; Papp A→B at 2 μM (MDR1; MDCK-MDR1, 2 μM): 1.65 ×10⁻⁶ cm/s; Efflux Category [1]: Substrate of efflux; Permeability Category [1]: Low | C[C@H]1O[C@@H](O[C@H]2[C@@H](O)C[C@H](O[C@H]3[C@@H](O)C[C@H](O[C@H]4CC[C@@]5(C)[C@H](CC[C@@H]6[C@@H]5C[C@@H](O)[C@]5(C)[C@@H](C7=CC(=O)OC7)CC[C@]65O)C4)O[C@@H]3C)O[C@@H]2C)C[C@H](O)[C@@H]1O [Digoxin] |
| 53% | 2% | 60.2% | 88.1% | 39.6% | 12 nM | – | – | % disappearance at 30 minutes relative to time zero [3]: 95.7%; Clearance Category [3]: High; half-life at 1 μM [3]: 6.81 min; remaining at 0.5 h, 1 μM [3]: 4.32% | F[C@@H]1CCN(c2ccc(-c3ccc4sc(-c5cncs5)cc4n3)cn2)C1 [LMD-006] |
| – | – | – | – | – | 54 nM | 72% | 13% | – | FC1CCN(c2ccc(-c3cc4nc(-c5cccnc5)ccc4s3)cn2)C1 (centres unmarked) [LMD-024] |
| – | – | – | – | – | 13 nM | 34% | 12% | – | FC1CCN(c2cnc(-n3cc4sc(-c5cncs5)cc4n3)cn2)C1 (centres unmarked) [LMD-029] |
| 38% | 25% | 46.7% | 79.2% | 53.3% | 50 nM | – | – | % disappearance at 30 minutes relative to time zero [3]: 95.0%; Clearance Category [3]: High; half-life at 1 μM [3]: 7.05 min; remaining at 0.5 h, 1 μM [3]: 5.02% | F[C@@H]1CCN(c2ccc(-n3cc4sc(-c5cccnc5)cc4n3)cn2)C1 [LMD-032] |
| – | – | – | – | – | 58 nM | 77% | 13% | – | FC1CCN(c2ccc(-c3ccc4scc(-c5cccnc5)c4n3)cn2)C1 (centres unmarked) [LMD-041] |
| 38% | 4% | 54.3% | 88.3% | 45.7% | 9.1 nM | – | – | % disappearance at 30 minutes relative to time zero [3]: 96.3%; Clearance Category [3]: High; half-life at 1 μM [3]: 6.37 min; remaining at 0.5 h, 1 μM [3]: 3.71% | F[C@@H]1CCN(c2cnc(-c3csc4ccc(-c5cccnc5)nc34)cn2)C1 [LMD-044] |
| 36% | 13% | 34.7% | 65.6% | 65.3% | 13 nM and 13.3 nM | – | – | % disappearance at 30 minutes relative to time zero [3]: 86.5%; Clearance Category [3]: High; half-life at 1 μM [3]: 10.5 min; remaining at 0.5 h, 1 μM [3]: 13.5% | F[C@@H]1CCN(c2cnc(-c3ccc4scc(-c5cccnc5)c4n3)cn2)C1 [LMD-045] |
| 43% | 8% | 96.6% | 97.9% | 3.43% | 12 nM and 11.8 nM | – | – | t1/2 ([3]; human liver microsomes (h-MR)): unstable | F[C@@H]1CCN(c2ccc(-n3ncc4sc(-c5cncs5)cc43)cn2)C1 [LMD-046] |
| 38% | 4% | 24.2% | 64.3% | 75.8% | 9.2 nM | – | – | % disappearance at 30 minutes relative to time zero [3]: 69.7%; Clearance Category [3]: High; half-life at 1 μM [3]: 17 min; remaining at 0.5 h, 1 μM [3]: 30.3% | FC1CCN(c2cnc(-n3cc4sc(-c5cccnc5)cc4n3)cn2)CC1 [LMD-051] |
| 27% | 2% | 60.3% | 82.8% | 39.7% | 6 nM | – | – | % disappearance at 30 minutes relative to time zero [3]: 94.4%; Clearance Category [3]: High; half-life at 1 μM [3]: 7.6 min; remaining at 0.5 h, 1 μM [3]: 5.61% | F[C@@H]1CCN(c2cc(-n3cc4sc(-c5cccnc5)cc4n3)ncn2)C1 [LMD-052] |
| – | – | – | – | – | 24 nM | 58% | 15% | – | Cn1ccc(-c2cc3nn(-c4cnc(N5CCC(F)C5)cn4)cc3s2)n1 (centres unmarked) [LMD-054] |
| – | – | – | – | – | – | 86% | 28% | – | Cn1ccc(-c2cc3nn(-c4ccc(N5CCC(F)C5)nn4)cc3s2)n1 (centres unmarked) [LMD-067] |
| – | – | – | – | – | – | 50% | 34% | – | FC1CCN(c2cc(-n3cc4sc(-c5cccnc5)cc4n3)ncn2)CC1 [LMD-068] |
| – | – | – | – | – | – | 49% | 31% | – | FC1CCN(c2ccnc(-n3cc4sc(-c5cccnc5)cc4n3)n2)CC1 [LMD-069] |
| – | – | – | – | – | – | 43% | 22% | – | FC1CCN(c2ccnc(-n3ncc4sc(-c5cccnc5)cc43)n2)C1 (centres unmarked) [LMD-070] |
| – | – | – | – | – | – | 48% | 33% | – | Cn1ccc(-c2cc3c(cnn3-c3ccc(N4CCC(F)C4)nn3)s2)n1 (centres unmarked) [LMD-072] |
| – | – | – | – | – | – | 71% | 29% | – | FC1CCN(c2cc(-n3ncc4sc(-c5cccnc5)cc43)ncn2)C1 (centres unmarked) [LMD-073] |
| – | – | – | – | – | – | 55% | 45% | – | Cn1ccc(-c2cc3nn(-c4cc(N5CCC(F)CC5)ncn4)cc3s2)n1 [LMD-074] |
| – | – | – | – | – | – | 41% | 19% | – | Cn1ccc(-c2cc3nn(-c4nccc(N5CCC(F)CC5)n4)cc3s2)n1 [LMD-075] |
| – | – | – | – | – | – | 64% | 22% | – | Cn1ccc(-c2cc3c(cnn3-c3nccc(N4CCC(F)CC4)n3)s2)n1 [LMD-076] |
| – | – | – | – | – | – | 67% | 20% | – | Cn1ccc(-c2cc3c(cnn3-c3cc(N4CCC(F)CC4)ncn3)s2)n1 [LMD-077] |
| – | – | – | – | – | – | – | – | recovery at 2 μM (MDR1; [5]): 95%; recovery at 2 μM (MDR1; [6]): 116%; Papp A→B at 2 μM (MDR1; MDCK-MDR1, 2 μM): 9.28 ×10⁻⁶ cm/s; Papp B→A at 2 μM (MDR1; MDCK-MDR1, basolateral-to-apical, 2 μM, read-out: B→A apparent permeability): 8.03 ×10⁻⁶ cm/s; Efflux Category [1]: Not a substrate; Permeability Category [1]: Medium | CC(C)NCC(O)COc1cccc2ccccc12 (centres unmarked) [Propranolol] |
